# Patent US20210340502A1, “Generation of Post-Mitotic Migratory Cortical Interneurons” (The McLean Hospital Corporation, priority 2018, published 2021)
# “Also recorded” adds a separate entry of the source.
# Legend:
# MGE progenitors = assay: KI67+ proliferating MGE progenitors after chemical treatment (immunocytochemistry and cell counting); format: cell-based; conditions: for proportion of proliferating MGE progenitors (in words): 3 week-old MGE progenitors treated for a week; for Percentage of proliferating cells (Average ± SEM, N): KI67+ cells, 3 week-old MGE progenitors treated 1 week, 20 μM FdU, 1% CultureOne, 10 mM DAPT, 2 μM PD0332991 or combination (CDP)
# Experimental: For chemical treatment of cINs, the differentiated progenitors were seeded on PLO/FN-coated surface at 3 weeks after differentiation, and cultured in B27GB media without or with each chemical, 20 μM FdU (Sigma-Aldrich, Natick, Mass., USA), 1% CultureOne (C, Thermo Fisher, Waltham, Mass., USA), […] (D, Sigma-Aldrich, Natick, Mass., USA), and 2 μM PD0332991 (P, Sigma-Aldrich, Natick, Mass., US), or with combination of CultureOne, DAPT and PD0332991 (CDP) for the time period designated in each Figure.
# Immunocytochemistry and cell counting. cINs on coverslips were fixed using 4% paraformaldehyde (PFA, Electron Microscopy Sciences, Hatfield, Pa.) for 15 min, washed with PBS and used for staining. The spheres at different differentiation stages were fixed by 4% PFA for 15 min, rinsed with PBS, cryo-protected in the 30% sucrose (Thermo Fisher, Waltham, Mass., USA) overnight at 4° C., mounted on the chuck using the O.C.T. Compound (Thermo Fisher, Waltham, Mass., USA) and cryosectioned at 40 μm using a Leica CM1850 cryostat (Leica Biosystem, Buffalo Grove, Ill., USA). Fixed cells or sphere sections were incubated with blocking/permeablization buffer (PBS with 10% normal serum and 0.1% Triton X-100) for 10 min. The samples were then incubated in primary antibodies in antibody dilution buffer (PBS containing 2% normal serum) overnight at 4° C. After washing with PBS, cells were incubated with fluorescently labeled secondary antibodies and DAPI (Invitrogen, Waltham, Mass., USA)) in antibody dilution buffer for 1 h at room temperature. Following the PBS wash, the samples were mounted with Fluoromount-G (SouthernBiotech, Birmingham, Ala., USA).
# For cell counting, multi point function in Image J software (Version 1.51 p, NIH, Bethesda, Md., USA) was used. Percentage of positive cells for each marker was calculated by dividing by DAPI-stained total nuclei number from at least 3 separate biological replicates. For each staining, a total of at least 500 cells were counted for each group.
# H9 cINs = assay: Cryopreservation of cINs with Trehalose in freezing media; format: cell-based, human
# Experimental: For cryopreservation, the trypsinized cells were resuspended in freezing media (FBS with 10% DMSO) with or without 100 mM Trehalose and were frozen slowly overnight in an insulated container at −80° C. deep freezer. After 24 hours, the stocks were moved to liquid nitrogen storage until further experiments. Frozen stocks were thawed quickly in a 37° C. water bath, transferred to 15 ml conical tubes with 5 ml media, centrifuged and resuspended in B27GB media with ROCK inhibitor for plating and further experiments.
# cIN organoids = assay: Passaging of cIN organoids with Trehalose; format: cell-based, human
# Experimental: For passaging cINs, cells were trypsinized by 0.05% trypsin (Thermo Fisher, Waltham, Mass., USA) supplemented with or without 10 mM Trehalose (Sigma-Aldrich, Natick, Mass., USA). After 5 minutes' incubation at 37° C., the spheres were triturated to dissociate the spheres. An equal volume of DMEM media with 10% FBS (Hyclone, Marlborough, Mass., USA) was added to neutralize Trypsin. In addition, Turbo DNase (2 U/ml, Thermo Fisher, Waltham, Mass., USA) was added to help clear released DNAs from culture. The cells were then kept in the incubator for additional 15 min to remove any sticky DNA mass released during trituration. After incubation, the cells were centrifuged and resuspended by B27GB media with ROCK inhibitor. To exclude the dead cell cluster, the resuspended cells were filtered through a cell strainer cap (35 μm nylon mesh, Corning, N.Y., USA), and plated onto a PLO/FN-coated surface (Poly-L-Ornithine, 15 ug/ml, Sigma-Aldrich, Natick; Fibronectin, 10 ug/ml, Thermo Fisher, Waltham, Mass., USA) for the subsequent experiments.
Structure (SMILES),proportion of proliferating MGE progenitors (in words) (MGE progenitors),"Percentage of proliferating cells (Average ± SEM, N) (MGE progenitors)",survival of cryopreserved cINs after freeze-thaw (H9 cINs; 100 mM Trehalose in freezing media),"cIN phenotypes after freeze-thaw (H9 cINs; SOX6, GAD, β-TUBLIN three weeks after thawing)","viability during cryopreservation (H9 cINs; optimized condition, compared to the cINs passaged without cryopreservation) [%]","survival rate during passaging (cIN organoids; 6 weeks after differentiation, 10 mM Trehalose in trypsin)","increase in survival rate during passaging (cIN organoids; older organoids, after six months' differentiation)"
C[C@H](NC(=O)Cc1cc(F)cc(F)c1)C(=O)N[C@H](C(=O)OC(C)(C)C)c1ccccc1 [DAPT],significantly reduced the proportion of proliferating progenitors; also recorded: worked well to control cell cycle exit of MGE cells,"8.835 ± 1.618, 4%",,,,,
"O=c1[nH]c(=O)n([C@H]2C[C@H](O)[C@@H](CO)O2)cc1F [FdU, 5-fluoro-2′-deoxyuridine]",did not influence the proportion of proliferating MGE progenitors; also recorded: not effective in reducing immature proliferating cell numbers,"31.719 ± 1.486, 4%",,,,,
CC(=O)c1c(C)c2cnc(Nc3ccc(N4CCNCC4)cn3)nc2n(C2CCCC2)c1=O [PD0332991],significantly reduced the proportion of proliferating progenitors; also recorded: effective in regulating MGE cell cycle exit,"5.160 ± 1.042, 4%",,,,,
OC[C@H]1O[C@H](O[C@H]2O[C@H](CO)[C@@H](O)[C@H](O)[C@H]2O)[C@H](O)[C@@H](O)[C@@H]1O [Trehalose],,,significantly increased survival,without affecting their phenotypes,65.27±8.97,significantly increased the survival rate,much more pronounced
